# Source: PMC12256496, “An advancement in developmental and reproductive toxicity (DART) risk assessment: evaluation of a bioactivity and exposure-based NAM toolbox” (Frontiers in Toxicology, 2025)
# Where two headings read alike, the source gives them in different places.
# What was measured:
# [1] = renal clearance, Fup*GFR (PBK parameter); conditions: method Fup*GFR
# [2] = existent consumer risk assessment for the cosmetic use scenario; ref SCCS / SCCP / SCCNFP; cited from earlier work
# [3] = Solubility pH 5.04; ref [1]; cited from earlier work
# [4] = system: human developmental and reproductive toxicity; conditions: ref Supplementary Data Sheet 1, cited from earlier work
# [5] = ref [2]; cited from earlier work
# [6] = set-up: method as in earlier work; conditions: ref [3]; cited from earlier work
# [7] = system: developmental or reproductive toxicity in animal or human; conditions: evidence of developmental or reproductive toxicity in animal or human, irrespective of exposure/dose; ref Supplementary Data Sheet 1; cited from earlier work
# [8] = ref Supplementary Data Sheet 1, cited from earlier work
# rats = conditions: ref Supplementary Data Sheet 1, cited from earlier work
# [9] = ref PubChem; cited from earlier work
# [10] = hepatic intrinsic clearance, CLint (PBK parameter); format: in vitro ADME
# [11] = Human in vivo PK data: concentration-dose ratio (CDR) and toxicokinetic variability factor (TKVF);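 further: Literature-pooled human in vivo PK data, plasma, serum or cord blood concentrations per daily dose, weighted by study population size across non-pregnant, pregnant and fetal groups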
# [12] = water solubility (PBK parameter); format: physicochemical; conditions: Solubility pH 6.99, optimised based on [13], read-out: Aqueous Solubility
# [13] = unbound fraction in plasma, fup (PBK parameter); format: in vitro ADME; conditions: optimised based on [13]
# serotonin receptor HTR2B = test: IPP: serotonin receptor HTR2B binding; conditions: low-risk exposure scenario
# Source text: In vitro pharmacological profiling is used to measure specific and high affinity non-covalent binding interactions between chemicals of interest and various targets with known safety liabilities. These targets include G protein coupled receptors (GPCRs), nuclear hormone receptors (NHRs), ion channels and enzymes. For this evaluation we included 72 targets of interest a full list of which is available in Supplementary Data Sheet 5, across a range of radioligand binding, enzymatic and protein-protein interaction assays run in binding mode only.
# The process for deriving a PoD for each of the 72 targets consisted of a two-step method that has been widely adopted when conducting in vitro pharmacological profiling experiments ([Brennan et al., 2024]). […] Targets showing an inhibition or stimulation greater than 50% of a maximal response produced by a reference compound are followed up in a second phase which includes an eight-point concentration response (in two replicates). […] EC50 values (concentration producing a half-maximal response) and IC50 values (concentration causing a half-maximal inhibition of the control agonist response) were determined by the Bayesian probabilistic model of the concentration-response curves and the Hill equation as per ([Labelle et al., 2019]). […] Calculated IC50s were taken forwards as the IPP PoDs ([Middleton et al., 2022]). […]
# pigtail monkeys = system: pigtail monkeys; set-up: method as in Supplementary Data Sheet 1; conditions: the only dose tested, ref Supplementary Data Sheet 1; cited from earlier work
# mice = system: mice; set-up: method as in Supplementary Data Sheet 1; conditions: ref Supplementary Data Sheet 1; cited from earlier work
# [14] = Bioactivity exposure ratio (BER): minimum platform PoD / estimated Cmax; conditions: low-risk scenario of normal dietary exposure to retinol and its metabolite
# hamsters = system: hamsters; set-up: method as in Supplementary Data Sheet 1; conditions: ref Supplementary Data Sheet 1; cited from earlier work
smiles,measurement,setting,value
Nc1cc([N+](=O)[O-])cc(Cl)c1O [2-Amino-6-chloro-4-nitrophenol],Renal Clearance,[1],0.034 L/h
same,MoS,[2],Used safely in cosmetic products. Existent consumer risk assessment from the SCCP. MoS >400.
same,Aqueous Solubility,[3],450000 µg/mL
same,Exposure risk (DART risk classification),"[4]; Cosmetic, 2% in hair colourant, dermal",Low Risk
same,Fup,[5],0.47%
same,Peff,[6],7.96 cm/s x E-04
same,DART Hazard Call,[7],Non Toxic
same,NOAEL for maternal toxicity,[8],30 mg/kg bw
"CCCCC(CC)C(=O)O (centres unmarked) [2-Ethylhexanoic acid (2-EHA), 2-Ethylhexanoic acid]",Renal Clearance,[1],0.008 L/h
same,developmental NOAEL,"rats; 2 rat studies, clubfoot/reduced skeletal ossification",100 mg/kg bw/day
same,NOAEL for parental effects,rats; EOGRT in rats,250 mg/kg bw/d
same,pKa Value ACID,[9],4.8
same,Intrinsic Liver Clearance,[10]; optimised based on [16],7.128 L/h
"Cc1cc(C(C)(C)C)c(O)c(C(C)(C)C)c1 [Butylated hydroxytoluene (BHT), Butylated hydroxytoluene]",Renal Clearance,[1],0.02382 L/h
same,MoS,[2],Used safely in cosmetic products. Existent consumer risk assessment from the SCCS. MoS >3000.
same,TKVF,"[11]; Non-Pregnant, oral",2.5
same,solubility,[12],5 µg/mL
same,Intrinsic Liver Clearance,[10]; optimised based on [13],22540.4 L/h
same,Fup,[13],0.33%
same,offspring NOAEL,"[8]; OECD 416, effects on litter size, sex ratio and pup body weight gain","OECD 416: 0, ~25, ~100 and ~280 mg/kg/day. Effects on offspring. Offspring NOAEL of 25 mg/kg bw/day based on effects on litter size, sex ratio and pup body weight gain."
"CCOC(=O)c1ccccc1C(=O)OCC [Diethyl phthalate (DEP), Diethyl phthalate]",MoS,[2],Used safely in cosmetic products. Existent safety assessment from the SCCNFP. MoS 161
same,BER from binding to the serotonin receptor HTR2B,serotonin receptor HTR2B,< 1
"CC1=C(/C=C/C(C)=C/C=C/C(C)=C/C(=O)O)C(C)(C)CCC1 [all-trans-retinoic acid (ATRA), all-trans-retinoic acid]","dose at which gross external, soft tissue and skeletal alterations occurred",pigtail monkeys,10 mg/kg/day
same,"dose above which gross external, soft tissue and skeletal alterations occurred",mice,> 0.7 mg/kg/day
same,BER,[14],< 1
same,CDR fold difference to non-pregnant,"[11]; female, human, in vivo",0.77
same,CDR fold difference to pregnant,"[11]; female, human, in vivo",1.00
same,TKVF,"[11]; female, human, in vivo",1.47
same,CDR fold difference to pregnant,"[11]; human, in vivo",0.71
same,Exposure risk (DART risk classification),"[4]; Dietary, <10,000 IU Retinol, oral",Low Risk
same,Exposure risk (DART risk classification),"[4]; Pharmaceutical, 80 mg/daily, oral",High Risk
same,Exposure risk (DART risk classification),"[4]; Pharmaceutical, 0.1% cream, dermal",Uncertain Risk
same,"dose above which gross external, soft tissue and skeletal alterations occurred",rats; rats,> 2 mg/kg/day
same,"dose above which gross external, soft tissue and skeletal alterations occurred",hamsters,> 7 mg/kg/day
same,DART Hazard Call,[7],Toxic
